The nature of experiment [1]: growth inhibition of PfATP4-mutant resistant parasites – NITD609-resistant line, SYBR Green, dry powder, dose response (AID 1159571).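 Also: parasites synchronized at ring stage by sorbitol before testing.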 The class given is functional, cell-based.
Experiment [2] is described as follows: reduced cellular PGC1a acetyl-lysine signal – cell-based, cherry-picked samples, dose response (AID 720514).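 Also: potency may reflect raised or lowered acetylation signal.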 The class given is functional.
Experiment [3] in a line: P. falciparum Dd2 growth inhibitors, dose response, SYBR Green, cherry-picked samples (AID 1159567). The format is functional, cell-based.
A short description of experiment [4]: toxicity to human HepG2 hepatoma cells – cell-based, plate reader, dry powder samples, cytotoxicity control, dose response (AID 1159569).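 Also: inhibitor potency with signal falling toward the positive control level.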 The class given is functional.
The nature of experiment [5]: growth inhibition of yeast DHODH-expressing 3D7 parasites – SYBR Green, dry powder samples, dose response (AID 1159570).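 Also: parasite growth measured after 72 hours of compound exposure.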 The class given is functional, cell-based.
Experiment [6] is described as follows: Dd2 malaria parasite growth inhibition potency – SYBR Green, dry powder samples, dose response (AID 1159566).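 Also: potency for growth inhibition with lower SYBR green DNA signal.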 The class given is functional, cell-based.
Experiment [7] addresses T1, Bcl-2-related protein A1 (Mus musculus, UniProt Q07440).
T1 sequence (Q07440 whole entry): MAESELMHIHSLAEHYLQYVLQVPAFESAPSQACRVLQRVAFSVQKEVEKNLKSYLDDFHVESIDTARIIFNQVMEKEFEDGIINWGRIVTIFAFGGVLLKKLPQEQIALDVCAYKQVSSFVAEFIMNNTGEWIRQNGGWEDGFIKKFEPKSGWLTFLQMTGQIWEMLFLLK
Briefly: Bfl-1 binding inhibitors, SAR follow-up, biochemical, fluorescence polarization (AID 1070). In general terms: In fluorescence polarisation assays a small probe gives low polarisation when free and higher when bound to something large.

In experiment [8] the target is T1, Bcl-2-related protein A1. Briefly: small-molecule antagonists of Bfl-1/BH3 interaction – biochemical, TR-FRET, mouse Bfl-1, confirmation (AID 621).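 Also: TR-FRET binding of GST-Bfl-1 to FITC-labelled Bid peptide via terbium antibody.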 On the technique in general: TR-FRET usually uses a lanthanide donor and a delayed reading to cut background.
The target of experiment [9] is Induced myeloid leukemia cell differentiation protein Mcl-1 (Homo sapiens, UniProt Q07820). The class given is functional.
The target of the next experiment is Genome polyprotein (Hepatitis C virus, UniProt Q2Q167). Briefly: disruption of hepatitis C core self-association – biochemical, TR-FRET, dose response (AID 2159).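 Also: blocks dimerization of HCV core protein measured by TR-FRET between tagged core106 pairs.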 Further details: species or system Hepacivirus hominis.
Another experiment deals with T2, Estrogen receptor (Homo sapiens, UniProt P03372).
T2 sequence (P03372 whole entry): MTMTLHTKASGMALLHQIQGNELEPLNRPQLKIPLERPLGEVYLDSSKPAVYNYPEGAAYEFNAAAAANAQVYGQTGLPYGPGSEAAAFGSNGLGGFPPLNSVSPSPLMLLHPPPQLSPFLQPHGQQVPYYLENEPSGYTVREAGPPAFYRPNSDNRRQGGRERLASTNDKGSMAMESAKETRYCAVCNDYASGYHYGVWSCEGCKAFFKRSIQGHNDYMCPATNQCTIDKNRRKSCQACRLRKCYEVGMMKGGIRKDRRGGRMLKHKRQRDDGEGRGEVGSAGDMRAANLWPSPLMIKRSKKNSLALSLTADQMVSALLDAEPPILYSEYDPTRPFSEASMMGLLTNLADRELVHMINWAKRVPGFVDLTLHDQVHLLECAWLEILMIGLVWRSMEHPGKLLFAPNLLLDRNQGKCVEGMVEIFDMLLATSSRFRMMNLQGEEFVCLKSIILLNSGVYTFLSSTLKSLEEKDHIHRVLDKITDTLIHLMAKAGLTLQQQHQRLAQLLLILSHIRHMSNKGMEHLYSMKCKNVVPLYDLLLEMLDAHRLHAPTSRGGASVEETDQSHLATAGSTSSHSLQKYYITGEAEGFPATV

The nature of experiment [10]: IC50 of insulin release inhibition, rat insulinoma INS-1E line, 5 mM glucose, cell-based (AID 1117331). The format is functional.
A short description of experiment [11]: toxicity to HepG2 liver cells – cell-based, plate reader, dry powder, set 6, cytotoxicity control, dose response (AID 743311). The class given is functional.
Experiment [12] in a line: OVCAR8 cell viability loss – plate reader, dry powder samples, PAX8 project, dose response (AID 743197). The class given is functional, cell-based. The following applies: OVCAR-8.
Experiment [13] in a line: lung carcinoma cell viability loss – CellTiter-Glo luminescence, dry powder, set 17, dose response (AID 1117284). The following applies: A549. The format is functional, cell-based. On the technique in general: Cellular ATP, detected with luciferase, serves as a proxy for viable cell number.
In a further experiment the target is Paired box protein Pax-8 (Homo sapiens, UniProt Q06710). Briefly: PAX8 transcriptional activity inhibition in RMG-I – RMG-I cells, luciferase, cherry-pick, dose response (AID 687027).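 Also: luciferase reporter driven by Pax8 target thyroperoxidase promoter measured by SteadyGlo luminescence.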 The class given is functional, cell-based.
For experiment [14], the target named is RNA-editing ligase 1, mitochondrial (Trypanosoma brucei brucei, UniProt P86926). Briefly: inhibition of trypanosome RNA editing ligase – biochemical, fluorescence, Trypanosoma brucei, dose response (AID 1117295). The format is functional.
Experiment [15] is described as follows: HCT116 cell viability decrease, GSK3B pretreatment – CellTiter-Glo, IC50, dose response (AID 1117339). To be noted: HCT-116. The format is functional.
Experiment [16] in a line: cytotoxicity toward Colo320 cells – cell-based, CellTiter-Glo luminescence, IC50, dose response (AID 1117334). The format is functional. To be noted: COLO 320.
A short description of experiment [17]: SNU-C1 cell viability reduction, dose response, CellTiter-Glo luminescence (AID 1117323). The class given is functional, cell-based.
The nature of experiment [18]: rise of 2N DNA cells, HeLa – IC50, dose response (AID 1117349). The class given is functional, cell-based.
Experiment [19] is described as follows: CellTiter-Glo luminescence survival assay, SW480 colon tumor line, concentration-response curve, half-maximal inhibitory concentration (AID 1117338). The format is functional.
Experiment [20] in a line: cytotoxicity toward HT-29 cells – cell-based, CellTiter-Glo luminescence, IC50, dose response (AID 1117330). The format is functional.
Experiment [21] can be described thus: Reduced DLD-1 viability, concentration-response, CellTiter-Glo luminescence (AID 1117352). The format is functional.
Experiment [22] in a line: cytotoxicity toward HCT116 cells – cell-based, CellTiter-Glo luminescence, IC50, dose response (AID 1117332). The class given is functional. To be noted: HCT-116.
Experiment [23] can be described thus: rise of 4N DNA cells, HeLa – IC50, dose response (AID 1117351). The class given is functional, cell-based.
Experiment [24] is described as follows: RKO cell viability reduction, dose response, CellTiter-Glo luminescence (AID 1117322). The format is functional.
The next experiment has as its target Ephrin type-A receptor 4 (Mus musculus, UniProt Q03137). Briefly: EphA4 ligand-binding antagonists – biochemical, colorimetric, mouse EphA4, primary screen (AID 689). The format is functional.
In experiment [25] the target is Glucose-6-phosphate 1-dehydrogenase (Homo sapiens, UniProt P11413). Briefly: inhibition of Homo sapiens G6PD, dose series – biochemical, fluorescence, selectivity assay for P. falciparum G6PD inhibitor project, dose response (AID 504792). The format is functional.
A further experiment has as its target Large T antigen (Simian virus 40, UniProt P03070). The class given is functional, Betapolyomavirus macacae.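 Also: Confirmatory-stage PubChem screen for compounds that inhibit SV40 T antigen.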
For experiment [26], the target named is Photoreceptor-specific nuclear receptor (Homo sapiens, UniProt Q9Y5X4). Briefly: ligands suppressing NR2E3 nuclear receptor activity – biochemical, TR-FRET, dose response (AID 463256). The class given is functional.
For experiment [27], the target named is Peroxisome proliferator-activated receptor gamma/Nuclear receptor corepressor 2 (Homo sapiens, UniProt P37231+Q9Y618). Briefly: Counterscreen for NR2E3 inverse agonists: TR-FRET-based biochemical high throughput dose response assay to identify inverse agonists of the interaction between peroxisome proliferator-activated receptor gamma (PPARg) and nuclear receptor co-repressor 2 (NCOR2). The class given is functional.

The target in experiment [28] is T1, Bcl-2-related protein A1. Briefly: displacement of Bid BH3 peptide from Bfl-1 – biochemical, fluorescence polarization, FITC-Bid, mouse, primary screen (AID 432).
A short description of experiment [29]: Luminescence Cell-Based Dose Confirmation HTS to Identify Inhibitors of Platelet Dense Granule Release. [Related pubchem assays: 1663 (Primary HTS), 1678 (Summary of Project)]. The class given is functional.
Experiment [30] deals with Luciferin 4-monooxygenase (Photinus pyralis, UniProt P08659). Briefly: inhibition of purified Photinus pyralis luciferase – biochemical, luminescence, dose response (AID 1891).
Experiment [31] can be described thus: Fluorescence Cell-Based Dose Response to Identify Inhibitors of Thrombin Receptor-Activating Peptide SFLLRN-Mediated P-Selectin Induction on Platelets. [Related pubchem assays: 1663 (Primary HTS), 1889 (retest at dose ), 1891 (counterscreen), 1678 (Project Summary)]. The class given is functional.
Another experiment deals with Cytochrome P450 2C19 (Homo sapiens, UniProt P33261). Briefly: qHTS Assay for Inhibitors and Substrates of Cytochrome P450 2C19. [Related pubchem assays: 410 ]. The class given is ADME. The following applies: read-out: Potency.
Experiment [32] addresses FAD-linked sulfhydryl oxidase ALR (Homo sapiens, UniProt P55789). Briefly: ALR-catalysed DTT oxidation blockers – biochemical, H2O2 detection, luminescence, cherry-pick, dose response (AID 493248).
Experiment [33] is described as follows: M. tuberculosis growth inhibition, HTS (AID 449762). The format is functional.

Calls of active or inactive are those of the source.

Luciferin 4-monooxygenase, sequence (P08659 whole entry): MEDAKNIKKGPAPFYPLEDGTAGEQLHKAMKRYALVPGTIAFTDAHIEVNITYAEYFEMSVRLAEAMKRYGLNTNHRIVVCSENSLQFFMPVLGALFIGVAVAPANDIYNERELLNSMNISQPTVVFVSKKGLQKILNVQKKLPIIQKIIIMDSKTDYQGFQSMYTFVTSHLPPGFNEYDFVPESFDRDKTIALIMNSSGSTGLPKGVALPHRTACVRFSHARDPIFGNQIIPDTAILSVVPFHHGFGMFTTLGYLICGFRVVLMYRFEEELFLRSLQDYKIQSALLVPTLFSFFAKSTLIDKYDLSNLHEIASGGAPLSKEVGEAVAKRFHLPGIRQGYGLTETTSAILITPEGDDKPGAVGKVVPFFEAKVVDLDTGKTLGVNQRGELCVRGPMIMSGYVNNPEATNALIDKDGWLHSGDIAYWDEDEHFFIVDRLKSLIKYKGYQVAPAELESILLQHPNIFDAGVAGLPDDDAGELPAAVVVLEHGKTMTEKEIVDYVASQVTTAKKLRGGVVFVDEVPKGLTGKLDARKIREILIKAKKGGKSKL
Cytochrome P450 2C19, sequence (P33261 whole entry): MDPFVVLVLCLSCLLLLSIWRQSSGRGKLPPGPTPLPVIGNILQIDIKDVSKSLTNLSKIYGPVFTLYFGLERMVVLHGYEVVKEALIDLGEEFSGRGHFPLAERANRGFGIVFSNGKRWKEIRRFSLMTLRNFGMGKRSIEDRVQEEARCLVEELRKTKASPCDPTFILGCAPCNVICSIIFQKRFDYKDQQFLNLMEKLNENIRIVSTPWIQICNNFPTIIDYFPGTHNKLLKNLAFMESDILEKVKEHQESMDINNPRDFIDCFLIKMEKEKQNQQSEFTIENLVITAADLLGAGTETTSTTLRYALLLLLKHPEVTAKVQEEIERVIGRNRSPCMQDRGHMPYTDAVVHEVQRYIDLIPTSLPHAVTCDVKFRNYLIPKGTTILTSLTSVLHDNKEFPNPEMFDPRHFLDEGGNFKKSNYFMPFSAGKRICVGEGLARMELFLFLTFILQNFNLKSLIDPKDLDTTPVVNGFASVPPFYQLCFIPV
Peroxisome proliferator-activated receptor gamma/Nuclear receptor corepressor 2, sequence (P37231 whole entry): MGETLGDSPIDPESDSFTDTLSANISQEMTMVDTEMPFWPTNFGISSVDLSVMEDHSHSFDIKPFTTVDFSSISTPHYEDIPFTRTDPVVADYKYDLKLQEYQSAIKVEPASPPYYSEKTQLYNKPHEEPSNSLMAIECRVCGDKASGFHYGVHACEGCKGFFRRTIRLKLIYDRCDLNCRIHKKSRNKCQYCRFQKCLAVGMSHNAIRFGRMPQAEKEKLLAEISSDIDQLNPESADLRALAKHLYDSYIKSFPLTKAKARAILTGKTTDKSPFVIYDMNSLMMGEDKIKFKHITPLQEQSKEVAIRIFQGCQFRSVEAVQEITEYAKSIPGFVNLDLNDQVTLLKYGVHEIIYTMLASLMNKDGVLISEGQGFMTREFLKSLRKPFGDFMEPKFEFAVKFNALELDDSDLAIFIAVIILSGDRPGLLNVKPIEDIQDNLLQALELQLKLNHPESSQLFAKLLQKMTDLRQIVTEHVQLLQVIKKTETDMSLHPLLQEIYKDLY
Peroxisome proliferator-activated receptor gamma/Nuclear receptor corepressor 2, sequence (Q9Y618 whole entry): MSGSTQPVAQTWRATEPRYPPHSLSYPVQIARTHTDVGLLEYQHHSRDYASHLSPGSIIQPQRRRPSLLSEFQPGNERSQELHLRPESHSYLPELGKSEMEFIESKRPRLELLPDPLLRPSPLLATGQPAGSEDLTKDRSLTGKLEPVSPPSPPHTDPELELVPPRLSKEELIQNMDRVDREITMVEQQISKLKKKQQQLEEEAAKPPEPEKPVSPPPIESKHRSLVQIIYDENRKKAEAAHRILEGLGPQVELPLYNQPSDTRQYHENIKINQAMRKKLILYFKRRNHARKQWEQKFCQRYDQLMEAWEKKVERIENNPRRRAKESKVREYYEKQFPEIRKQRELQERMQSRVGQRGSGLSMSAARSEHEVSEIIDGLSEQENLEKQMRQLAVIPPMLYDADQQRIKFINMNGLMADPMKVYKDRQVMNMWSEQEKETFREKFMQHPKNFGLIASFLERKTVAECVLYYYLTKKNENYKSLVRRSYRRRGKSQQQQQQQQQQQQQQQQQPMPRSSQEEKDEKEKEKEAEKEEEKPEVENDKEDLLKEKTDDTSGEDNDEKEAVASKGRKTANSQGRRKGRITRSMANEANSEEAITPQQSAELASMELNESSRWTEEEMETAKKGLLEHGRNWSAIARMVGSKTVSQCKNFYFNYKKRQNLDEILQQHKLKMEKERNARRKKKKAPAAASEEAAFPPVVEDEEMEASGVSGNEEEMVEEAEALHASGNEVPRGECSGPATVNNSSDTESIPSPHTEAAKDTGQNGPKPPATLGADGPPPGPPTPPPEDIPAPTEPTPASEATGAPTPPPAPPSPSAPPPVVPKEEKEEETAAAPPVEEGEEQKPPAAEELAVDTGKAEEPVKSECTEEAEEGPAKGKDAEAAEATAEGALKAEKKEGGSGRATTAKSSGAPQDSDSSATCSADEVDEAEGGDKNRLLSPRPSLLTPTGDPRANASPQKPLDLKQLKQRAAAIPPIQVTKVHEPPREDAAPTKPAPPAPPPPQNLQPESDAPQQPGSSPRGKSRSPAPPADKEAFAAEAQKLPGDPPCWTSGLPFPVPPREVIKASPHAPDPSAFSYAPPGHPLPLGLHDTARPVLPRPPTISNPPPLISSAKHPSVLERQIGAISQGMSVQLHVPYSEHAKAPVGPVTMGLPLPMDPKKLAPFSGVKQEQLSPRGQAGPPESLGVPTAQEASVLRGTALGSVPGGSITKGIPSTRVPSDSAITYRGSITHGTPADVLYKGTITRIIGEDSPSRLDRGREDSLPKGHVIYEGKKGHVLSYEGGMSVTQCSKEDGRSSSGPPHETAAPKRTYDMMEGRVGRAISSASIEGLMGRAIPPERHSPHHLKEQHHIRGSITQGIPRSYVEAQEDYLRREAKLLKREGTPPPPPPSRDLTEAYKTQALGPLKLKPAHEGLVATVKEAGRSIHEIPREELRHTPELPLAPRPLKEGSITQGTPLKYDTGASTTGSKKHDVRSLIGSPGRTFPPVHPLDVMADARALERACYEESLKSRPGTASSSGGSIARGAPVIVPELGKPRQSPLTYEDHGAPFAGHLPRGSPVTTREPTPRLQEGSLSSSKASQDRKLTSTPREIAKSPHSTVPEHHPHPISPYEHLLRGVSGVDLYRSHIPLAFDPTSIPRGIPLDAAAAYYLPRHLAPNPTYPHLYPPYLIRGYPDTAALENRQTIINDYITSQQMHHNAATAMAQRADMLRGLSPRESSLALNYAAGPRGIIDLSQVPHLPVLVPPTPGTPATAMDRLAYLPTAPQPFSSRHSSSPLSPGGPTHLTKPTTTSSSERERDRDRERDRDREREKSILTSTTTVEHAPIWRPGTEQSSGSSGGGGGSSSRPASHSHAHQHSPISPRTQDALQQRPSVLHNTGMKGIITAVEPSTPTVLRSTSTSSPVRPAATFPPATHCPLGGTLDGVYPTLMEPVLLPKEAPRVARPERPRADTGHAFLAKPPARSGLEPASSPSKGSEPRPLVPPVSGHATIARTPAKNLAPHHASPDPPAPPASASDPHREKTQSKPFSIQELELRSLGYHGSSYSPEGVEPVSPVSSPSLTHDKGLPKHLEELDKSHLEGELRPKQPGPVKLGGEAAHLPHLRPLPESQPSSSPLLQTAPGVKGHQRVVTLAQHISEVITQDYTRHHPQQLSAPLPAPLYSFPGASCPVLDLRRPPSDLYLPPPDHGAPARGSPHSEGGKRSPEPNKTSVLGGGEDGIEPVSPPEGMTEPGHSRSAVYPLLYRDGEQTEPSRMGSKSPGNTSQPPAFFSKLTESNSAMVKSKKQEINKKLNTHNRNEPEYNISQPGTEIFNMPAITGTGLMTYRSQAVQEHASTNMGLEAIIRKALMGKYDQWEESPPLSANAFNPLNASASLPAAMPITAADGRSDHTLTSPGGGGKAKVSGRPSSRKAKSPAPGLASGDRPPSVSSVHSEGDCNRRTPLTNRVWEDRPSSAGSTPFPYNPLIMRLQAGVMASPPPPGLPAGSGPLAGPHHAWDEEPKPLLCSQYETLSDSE
Large T antigen, sequence (P03070 whole entry): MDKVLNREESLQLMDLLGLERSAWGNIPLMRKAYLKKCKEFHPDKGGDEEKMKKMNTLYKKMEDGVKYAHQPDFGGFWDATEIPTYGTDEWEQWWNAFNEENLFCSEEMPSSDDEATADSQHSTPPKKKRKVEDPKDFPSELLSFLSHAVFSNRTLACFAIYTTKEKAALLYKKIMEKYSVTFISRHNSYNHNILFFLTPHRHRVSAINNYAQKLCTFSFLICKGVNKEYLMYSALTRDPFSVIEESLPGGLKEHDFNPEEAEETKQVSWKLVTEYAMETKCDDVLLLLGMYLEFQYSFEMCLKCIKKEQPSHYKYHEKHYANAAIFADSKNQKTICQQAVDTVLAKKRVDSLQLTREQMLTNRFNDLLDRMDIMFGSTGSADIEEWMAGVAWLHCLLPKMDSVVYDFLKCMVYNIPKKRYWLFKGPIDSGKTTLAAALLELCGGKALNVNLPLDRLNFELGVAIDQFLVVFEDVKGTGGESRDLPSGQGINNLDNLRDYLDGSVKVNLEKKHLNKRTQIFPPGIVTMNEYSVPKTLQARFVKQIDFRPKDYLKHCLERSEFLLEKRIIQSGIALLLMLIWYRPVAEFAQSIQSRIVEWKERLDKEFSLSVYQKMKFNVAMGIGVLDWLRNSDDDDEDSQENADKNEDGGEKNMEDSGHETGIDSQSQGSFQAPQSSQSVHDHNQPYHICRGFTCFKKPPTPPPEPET
Genome polyprotein, sequence (Q2Q167 whole entry): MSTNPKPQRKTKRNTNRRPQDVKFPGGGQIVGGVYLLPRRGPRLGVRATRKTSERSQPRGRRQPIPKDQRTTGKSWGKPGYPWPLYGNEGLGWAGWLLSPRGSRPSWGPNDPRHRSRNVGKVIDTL

In the case of `O=S(=O)(c1ccc(-c2ccccc2)cc1)N1C[C@@H]2N[C@H](C1)[C@@H]2c1ccc(-c2cccnc2)cc1`, the AC50 in experiment [1] was 1.8 µM (active); in [2], 8.2 µM (active); in experiment [3], 2.14 µM (active); in experiment [4], 19.5 µM (active); in [5] it was 1.29 µM (active); in [6], 0.772 µM (active).

The term IC50 denotes the concentration that inhibits the measured activity by half. Turning to `O=C1C(Cl)=C(N2CCN(C/C=C/c3ccccc3)CC2)C(=O)N1c1ccc(Cl)c(Cl)c1`, the figures for the IC50 at Bcl-2-related protein A1 [7] and at Bcl-2-related protein A1 [8] were 0.594 µM (active) and 0.73 µM (active), respectively.

Consider `Cc1oc(-c2ccc(Cl)cc2)cc1-c1nn2c(-c3ccoc3C)nnc2s1`, for which the IC50 was 3.8 µM (not active) in [9], > 49.8 µM (not active) on Genome polyprotein and 2.77 µM (active) on Estrogen receptor.

Turning to `OC(CCN1CCCCC1)(c1ccccc1)c1ccccc1` [PRIDINOL], in experiment [10], the IC50 is 27 µM (inactive).

Consider `CC(C)Oc1ccc(OCCn2c(=S)[nH]c3ccccc32)cc1`, for which, in experiment [11], the AC50 was > 52 µM (inactive).

For `C[C@H](O)C#Cc1ccc2c(c1)O[C@H](CN(C)Cc1ccc(-c3ccccc3)cc1)[C@H](C)CN([C@@H](C)CO)S2(=O)=O`, the AC50 in experiment [12] was 50 µM (active); in experiment [13], > 52 µM (inactive); at Paired box protein Pax-8, 5.87 µM (active).

Consider `C=CCNCCOCCOc1ccc(Cl)cc1C(C)(C)C`, for which, in [14], the IC50 is > 96.6 µM (inactive).

With `O=C1C2CC=CCC2C(=O)N1SC(Cl)(Cl)Cl` (stereo not given) [CAPTAN], the IC50 in experiment [15] is 2.21 µM (active); in [16], 0.306 µM (active); in experiment [17], 0.903 µM (active); in [18], > 10 µM (inactive); in experiment [19], 0.0788 µM (active); in experiment [20], 0.5 µM (active). Further, the half-maximal inhibitory concentration (IC50) in [21] is 0.348 µM (active); in experiment [22] it was 1.76 µM (active); in [23] it was > 10 µM (inactive); in experiment [24] it was 0.402 µM (active).

For `COc1ccccc1N1CSC2=C(C#N)C(c3ccc(SC)cc3)CC(=O)N2C1` (stereo not given), the IC50 is 21.5 µM (active) at Ephrin type-A receptor 4, > 80 µM (inactive) in experiment [25] and 28.4 µM (active) at Large T antigen.

Turning to `O=C(Cc1ccccc1)Nc1ccc2oc(-c3ccncc3)nc2c1`, the IC50 in experiment [26] is 6.31 µM (active); in experiment [27] it was 6.54 µM (active).

Turning to `COc1ccc(N2C(=O)C(Cl)=C(Nc3c(C)n(C)n(-c4ccccc4)c3=O)C2=O)cc1`, the IC50 on Bcl-2-related protein A1 [8] and at Bcl-2-related protein A1 [28] was > 100 µM (not active) throughout.

Broadly, the EC50 is the concentration that produces a half-maximal response. For `C/C(=N/NC(=O)C1CCCC1)c1ccc(NC(=O)C(F)(F)F)cc1`, the values for the half-maximal effective concentration (EC50) in [29], in experiment [30] and in experiment [31] were 3.55 µM (active), > 112 µM (not active) and < 1 µM (active), respectively.

For the molecule `COc1ccccc1N1CCN(CCN(C(=O)c2ccc(I)cc2)c2ccccn2)CC1`, the AC50 on Cytochrome P450 2C19 is 10 µM (inconclusive).

On to `O=C1CCC(=O)N1CNc1ccc(Oc2ccccc2)cc1`, for which, in experiment [32], the AC50 is 0.166 µM (active). Also, in experiment [33], the IC50 is > 100 µM (active).
